Where two headings read alike, the source gives them in different places.
Assays:
H526 = test: 72 hr cytotoxicity: SCLC variant; assay type: cell-based; settings: Homo sapiens, NCI-H526; read-out: IC50
H647 (KRAS) = test: cells; assay type: cell-based; settings: Homo sapiens, NCI-H647; read-out: IC50
H146 = test: 72 hr cytotoxicity: SCLC classic; assay type: cell-based; settings: Homo sapiens, NCI-H146; read-out: IC50
H187 = test: 72 hr cytotoxicity: SCLC classic; assay type: cell-based; settings: Homo sapiens, NCI-H187; read-out: IC50
H417 = test: 72 hr cytotoxicity: SCLC variant; assay type: cell-based; settings: Homo sapiens, NCI-H417; read-out: IC50
H82 = test: 72 hr cytotoxicity: SCLC variant; assay type: cell-based; settings: Homo sapiens, NCI-H82; read-out: IC50
H678 = test: 72 hr cytotoxicity: SCLC classic; assay type: cell-based; settings: Homo sapiens; H678; read-out: IC50
H249 = test: 72 hr cytotoxicity: SCLC classic; assay type: cell-based; settings: Homo sapiens; H249; read-out: IC50
H23 = test: cells; assay type: cell-based; settings: Homo sapiens, NCI-H23; read-out: IC50
H209 = test: 72 hr cytotoxicity: SCLC classic; assay type: cell-based; settings: Homo sapiens, NCI-H209; read-out: IC50
H524 = test: 72 hr cytotoxicity: SCLC variant; assay type: cell-based; settings: Homo sapiens, NCI-H524; read-out: IC50
H719 = test: 72 hr cytotoxicity: SCLC classic; assay type: cell-based; settings: Homo sapiens; H719; read-out: IC50
H520 (FGFR) = test: cells; assay type: cell-based; settings: Homo sapiens, NCI-H520; read-out: IC50
H322 = test: cells; assay type: cell-based; settings: Homo sapiens, NCI-H322; read-out: IC50
H125 = test: cells; assay type: cell-based; settings: Homo sapiens, NCI-H125; read-out: IC50
H128 = test: 72 hr cytotoxicity: SCLC classic; assay type: cell-based; settings: Homo sapiens, NCI-H128; read-out: IC50
H60 = test: 72 hr cytotoxicity: SCLC classic; assay type: cell-based; settings: Homo sapiens; H60; read-out: IC50
H358 KRAS = test: cells; assay type: cell-based; settings: Homo sapiens, NCI-H358; read-out: IC50
H562 = test: 72 hr cytotoxicity: SCLC classic; assay type: cell-based; settings: Homo sapiens; H562; read-out: IC50
H226 = test: cells; assay type: cell-based; settings: Homo sapiens, NCI-H226; read-out: IC50
H69 = test: 72 hr cytotoxicity: SCLC classic; assay type: cell-based; settings: Homo sapiens, NCI-H69
H596 (PIK3CA) = test: cells; assay type: cell-based; settings: Homo sapiens, NCI-H596; read-out: IC50
BMEC-hTert = test: cells; assay type: cell-based; settings: Homo sapiens, 72 h
MRC5 = test: cells; assay type: cell-based; settings: Homo sapiens, MRC5, 72 h
[1] = test system: normal cord blood CD34+ cells; test: Cytotoxicity on normal cord blood CD34+ cells; assay type: cell-based; settings: Homo sapiens
BCI-NSI hTERT = test: 72 hr cytotoxicity: Bronchial epithelium; assay type: cell-based; settings: Homo sapiens
[2] = test system: normal human, murine or primate cell and tissue types; test: MTT / alamar blue cytotoxicity on panel of normal tissues; assay type: cell-based; settings: read-out: IC50 range
HUVEC = test: 72 hr cytotoxicity: Umbilical endothelium; assay type: cell-based; settings: Homo sapiens
16HBE SV40+ = test: cells; assay type: cell-based; settings: Homo sapiens, 72 h
FTE-hTERT = test: 72 hr cytotoxicity: Fallopian epithelium; assay type: cell-based; settings: Homo sapiens
IMR90 = test: 72 hr cytotoxicity: fetal lung myofibroblast; assay type: cell-based; settings: Homo sapiens
MS-5 (mouse) = test: 72 hr cytotoxicity: Adult BM stroma; assay type: cell-based; settings: MS-5 murine stroma
HS578 = test: 72 hr cytotoxicity: Breast epithelium; assay type: cell-based; settings: Homo sapiens
[3] = test system: Cord Blood CFC (CFU-GM, BFU-E, CFU-C); test: cells; assay type: cell-based; settings: Homo sapiens
[4] = test system: MCL line JEKO-1 vs normal human tissues; assay type: cell-based
BEAS2B SV40 = test: cells; assay type: cell-based; settings: Homo sapiens, BEAS-2B, 72 h
HBL2 = test: Drug combination cytotoxicity with BO-1055; assay type: cell-based; settings: Homo sapiens; HBL2, 72 hrs alamar blue; read-out: IC50 single drug
BMMSC = test: 72 hr cytotoxicity: BM Mesenchyme; assay type: cell-based; settings: Homo sapiens, 72 hr, read-out: IC50
[5] = test system: A673 Ewing's sarcoma cell line; test: Combination cytotoxicity (Alamar blue, Compusyn CI); assay type: cell-based, human; settings: A673, simultaneous, lattice format
Mino = test: Drug combination cytotoxicity with BO-1055; assay type: cell-based, human; settings: 72 hrs alamar blue
Granta = test: Drug combination cytotoxicity with BO-1055; assay type: cell-based, human; settings: 72 hrs alamar blue
Z-138 = test: Drug combination cytotoxicity with BO-1055; assay type: cell-based, human; settings: Z-138, 72 hrs alamar blue
REC-1 = test: Drug combination cytotoxicity with BO-1055; assay type: cell-based, human; settings: REC-1, 72 hrs alamar blue
NECB1 = test: Drug combination cytotoxicity with BO-1055; assay type: cell-based, human; settings: NECB1, 72 hrs alamar blue
JEKO-1 = test: Drug combination cytotoxicity with BO-1055; assay type: cell-based; settings: Homo sapiens; JEKO-1, 72 hrs alamar blue; read-out: IC50 single drug
CHLA-9 = test: Cytotoxicity: Ewing's sarcoma; settings: Homo sapiens, read-out: cytotoxic activity (IC50)
JURKAT = test: Cytotoxicity: T-ALL; assay type: cell-based; settings: Homo sapiens, read-out: IC50
[6] = test system: Ewing's sarcoma cell lines; test: Cytotoxicity on sarcoma panel; assay type: cell-based; settings: Homo sapiens; read-out: IC50 range
CCRF-CEM = test: Cytotoxicity: T-cell leukemia; assay type: cell-based; settings: Homo sapiens, read-out: IC50
MOLT-4 = test: Cytotoxicity: T-ALL; assay type: cell-based; settings: Homo sapiens, read-out: IC50
COG-LL-317 = test: Cytotoxicity: T-ALL; assay type: cell-based; settings: Homo sapiens; COG-LL-317; read-out: IC50
Kasumi-1 AML-ETO = test: Cytotoxicity: AML line; assay type: cell-based; settings: Homo sapiens; Kasumi-1; read-out: IC50
HL-60 = test: Cytotoxicity: AML line; assay type: cell-based; settings: Homo sapiens, read-out: IC50
CCRF-CEM/Taxol = test: Cytotoxicity: Paclitaxel-resistant subline; assay type: cell-based; settings: Homo sapiens; CCRF-CEM/Taxol; read-out: IC50
RH30 = test: Cytotoxicity: Rhabdomyosarcoma (Alveolar type); settings: Homo sapiens, Rh30
[7] = Homo sapiens, read-out: IC50 single drug

## O=NN(CCCl)C(=O)NCCCl [BCNU, Carmustine]
H526
  IC50: ≥ 30 µM
H647 (KRAS)
  IC50: ≥ 150 µM
H146
  IC50: ≥ 95 µM
H187
  IC50: ≥ 35 µM
H417
  IC50: ≥ 75 µM
H82
  IC50: ≥ 150 µM
H678
  IC50: ≥ 125 µM
H249
  IC50: ≥ 75 µM
H23
  IC50: ≥ 100 µM
H209
  IC50: ≥ 35 µM
H524
  IC50: ≥ 45 µM
H719
  IC50: ≥ 100 µM
H520 (FGFR)
  IC50: ≥ 120 µM
H322
  IC50: ≥ 200 µM
H125
  IC50: ≥ 100 µM
H128
  IC50: ≥ 75 µM
H60
  IC50: 36 µM
H358 KRAS
  IC50: ≥ 75 µM
H562
  IC50: ≥ 35 µM
H226
  IC50: ≥ 150 µM
H69
  IC50: 103 µM
H596 (PIK3CA)
  IC50: ≥ 225 µM

## Cn1c(CCCC(=O)O)nc2cc(N(CCCl)CCCl)ccc21 [Bendamustine]
BMEC-hTert
  IC50: 300 µM
MRC5
  IC50: > 20 µM
[1]; 72 h
  IC50: 10 µM
BCI-NSI hTERT; 72 h
  IC50: 85 µM
[2]
  IC50: 20 to 400 µM
HUVEC; HUVEC, 72 h
  IC50: 140 µM
16HBE SV40+
  IC50: 3.55 µM
FTE-hTERT; 72 h
  IC50: 400 µM
IMR90; IMR-90, 72 h
  IC50: 32.3 µM
MS-5 (mouse)
  IC50: 2.24 µM
HS578; Hs578, 72 h
  IC50: > 100 µM
[3]
  IC50: 10 µM
[4]
  TW: 1.60-6.36 fold
BEAS2B SV40
  IC50: > 10 µM

## CC(C)NCCCn1c(Sc2cc3c(cc2I)OCO3)nc2c(N)ncnc21 [PUH71]
HBL2
  IC50: 0.499 µM
BMMSC; HuMSC bone marrow mesenchymal stem cells
  IC50: 0.63 µM
[1]; CD34 (cord blood hematopoietic progenitors), 72 hr, read-out: IC50
  IC50: 0.05 µM
BCI-NSI hTERT; Bci-NSI hTERT immortalized lung bronchus epithelium, 72 hr, read-out: IC50
  IC50: 1.5 µM
[5]
  interaction with BO-1055: exhibits synergism
Mino; Homo sapiens, MINO, read-out: IC50 single drug
  IC50: 0.263 µM
Mino; Mino
  interaction with BO-1055 (combo-1, combo-2): dually synergistic
HUVEC; HUVEC endothelium, 72 hr, read-out: IC50
  IC50: 0.35 µM
Granta; Granta
  interaction with BO-1055 (combo-1, combo-2): dually antagonistic
Granta; Homo sapiens, GRANTA, read-out: IC50 single drug
  IC50: 1.22 µM
FTE-hTERT; FTEC Fallopian tube epithelium, 72 hr, read-out: IC50
  IC50: 80 µM
Z-138; [7]
  IC50: 0.162 µM
Z-138
  interaction with BO-1055 (combo-1, combo-2): synergistic with BO-1055 in both combinations
REC-1
  interaction with BO-1055 (combo-1, combo-2): antagonistic against REC-1 in both combinations
NECB1; [7]
  IC50: 1.66 µM
NECB1
  interaction with BO-1055 (combo-1, combo-2): synergistic with BO-1055 against NECB1 in combo-1 and antagonistic in combo-2
JEKO-1
  IC50: 0.037 µM

## Cn1nnc2c(C(N)=O)ncn2c1=O [Temozolomide]
CHLA-9
  IC50: 294 µM
BMMSC
  IC50: ≥ 45 µM
JURKAT
  IC50: 2.07 µM
BCI-NSI hTERT; BCI-NSI hTERT, 72 hr, read-out: IC50
  IC50: ≥ 40 µM
[6]
  IC50: 245 to 405 µM
CCRF-CEM
  IC50: 424 µM
MOLT-4
  IC50: 182 µM
HUVEC; HUVEC, 72 hr, read-out: IC50
  IC50: 4.35 µM
IMR90; IMR-90, IMR90, 72 hr, read-out: IC50
  IC50: 57.3 µM
COG-LL-317
  IC50: 181 µM
MS-5 (mouse); read-out: IC50
  IC50: 5.5 µM
HS578; HS578, 72 hr, read-out: IC50
  IC50: > 100 µM
Kasumi-1 AML-ETO
  IC50: 389 µM
HL-60
  IC50: 49 µM
CCRF-CEM/Taxol
  IC50: 502 µM
RH30
  IC50: 9 µM

Reference: US10548861B2 (Academia Sinica, priority 2015, dated 2020)
